Experimental data as given in US9896471B2, “Salt of 1-(2-deoxy-2-fluoro-4-thio-β-D-arabinofuranosyl)cytosine” (FUJIFILM Corporation, priority 2012, dated 2018).
Values after ≈ are worked out from the molar mass of the structure shown.

Legend:
Tableting property test = type: physicochemical; settings: average of five tabletings; 5 points surface has gloss, 1 point surface is chipped, 0 point tablets stick to pestle; 1000 kgf, 100 mg tablet
Protocol: The obtained powdery sample was compression-molded by using a tableting machine (Tableting Machine HT-P18A, Hata Iron Works, Ltd.; tableting diameter, 6.5 mm; tableting pressure, 1000 kgf; tablet weight, 100 mg) to obtain tablets. The obtained tablets were macroscopically observed, and graded according to the following criteria.
5 Points: Surface has gloss.
4 Points: Surface is slightly roughened.
3 Points: Surface is roughened.
2 Points: Surface is slightly chipped.
1 Point: Surface is chipped.
0 Point: Tablets stick to pestle, and cannot be unstuck.
The tableting was performed five times, and averages of the scores of the tablets were calculated.

[1] = Flowability test (compaction rate); type: physicochemical; settings: powder sieved 177 μm mesh; (compacted − loose bulk density)/compacted bulk density × 100
Excerpt: The obtained powdery sample was roughly filled in a glass measuring cylinder (10 cm^3), the upper surface of the powder layer was horizontally smoothened, and the value of the volume was read. The weight of the powdery sample was divided with the volume to obtain loose bulk density (g/cm^3).
Then, the glass measuring cylinder filled with the powdery sample was tapped by using a general powdery characteristic measuring apparatus (Powdertester Type PT-E, Hosokawa Micron CORP.). When the volume of the powder layer no longer changed, the value of the volume was read. The weight of the powdery sample was divided with the volume to obtain compacted bulk density (g/cm^3).
The compaction rate (%) was obtained in accordance with the following equation. Compaction rate (%)=[(Compacted bulk density−Loose bulk density)/Compacted bulk density]×100

tumors = settings: orally administered to mice; Non-patent documents 1 and 2; cited from earlier work
BxPC-3 = assay: Antitumor activity: cell proliferation inhibition (ATPlite); type: cell-based; settings: BxPC-3, 1000 cells/well, 3 days culture
Protocol: (§1) Cells at the logarithmic phase were inoculated on a 96-well plate at a density of 1000 cells/well (BxPC-3, MIA PaCa-2) or 3000 cells/well (Capan-1), and cultured overnight at 37° C. in a CO2 incubator. On the next day, serially diluted solutions of each test compound were added, and culture was performed for 3 days in an incubator. After completion of the culture, by using a cell proliferation assay kit ATPlite (Perkin Elmer), and a plate reader Envision (Perkin Elmer), emission was measured. Concentrations of the test compounds providing 50% of cell proliferation inhibition (IC50) were calculated by fitting using a sigmoid function. The solutions of the test compounds were prepared by diluting them with PBS (pH 7.4) at 10 mM, and further diluting the 10 mM solutions with PBS (pH 7.4), and used in the test.

MIA PaCa-2 = assay: as above; type: cell-based; settings: MIA PaCa-2, 1000 cells/well, 3 days culture
Protocol: as §1

Capan-1 = assay: as above; type: cell-based; settings: Capan-1, 3000 cells/well, 3 days culture
Protocol: as §1

[2] = Stability test (deliquescence on storage); type: physicochemical; settings: stored 2 weeks, open state, 60° C. and 75% relative humidity, macroscopic observation
Protocol: The compounds of Examples 1 and 2 were stored for 2 weeks in an open state under conditions of 60° C. and 75% relative humidity. The test compounds were macroscopically observed after the storage, and presence or absence of deliquescence was examined.

Protocol for Solubility test in water: Each of the test compounds and the comparative compound was added to water, and the mixture was stirred at room temperature for 24 hours. The insoluble matter was removed by filtration using a membrane filter (0.2 μm). The filtrate was analyzed by high performance liquid chromatography (HPLC) to obtain the solubility.

| Structure (SMILES) | Score (tableting property) (Tableting property test) | solubility at 24 h (Solubility test in water; thermodynamic from solid) [µg/mL] | Compaction rate [1] [%] | antitumor activity (tumors) | IC50 (BxPC-3; Homo sapiens, 72 h) [nM] | IC50 (MIA PaCa-2; Homo sapiens, 72 h) [nM] | IC50 (Capan-1; Homo sapiens, 72 h) [nM] | Solubility in water (Solubility test in water; room temperature, stirred 24 hours, 0.2 μm filtration, HPLC) [µg/mL] | presence or absence of deliquescence [2] | IC50 (BxPC-3) [nM] | IC50 (MIA PaCa-2) [nM] | IC50 (Capan-1) [nM] |
| --- | --- | --- | --- | --- | --- | --- | --- | --- | --- | --- | --- | --- |
| Nc1ccn([C@@H]2S[C@H](CO)[C@@H](O)[C@@H]2F)c(=O)n1 [Comparative compound, 1-(2-deoxy-2-fluoro-4-thio-β-D-arabinofuranosyl)cytosine] | 1.0 | 2000 (≈ 7.65 mM) | 41 | potent antitumor activity | 45 | 382 | 35 |  |  |  |  |  |
| CS(=O)(=O)O.Nc1ccn([C@@H]2S[C@H](CO)[C@@H](O)[C@@H]2F)c(=O)n1 [Example 1, methanesulfonate of 1-(2-deoxy-2-fluoro-4-thio-β-D-arabinofuranosyl)cytosine] | 4.5 |  | 18 |  |  |  |  | 79000 | did not deliquesce | 45 | 373 | 36 |
| Cl.Nc1ccn([C@@H]2S[C@H](CO)[C@@H](O)[C@@H]2F)c(=O)n1 [Example 2, hydrochloride of 1-(2-deoxy-2-fluoro-4-thio-β-D-arabinofuranosyl)cytosine] | 5.0 |  | 21 |  |  |  |  |  | did not deliquesce | 41 | 417 | 31 |
